pEC50: −log10 of the molar value.
Legend:
[1] = target: T1, Peroxisome proliferator-activated receptor delta (Homo sapiens, UniProt Q03181); assay: Agonist activity against human PPAR delta receptor in CV-1 cell was determined; assay type: functional, cell-based
T1 sequence (Q03181 whole entry): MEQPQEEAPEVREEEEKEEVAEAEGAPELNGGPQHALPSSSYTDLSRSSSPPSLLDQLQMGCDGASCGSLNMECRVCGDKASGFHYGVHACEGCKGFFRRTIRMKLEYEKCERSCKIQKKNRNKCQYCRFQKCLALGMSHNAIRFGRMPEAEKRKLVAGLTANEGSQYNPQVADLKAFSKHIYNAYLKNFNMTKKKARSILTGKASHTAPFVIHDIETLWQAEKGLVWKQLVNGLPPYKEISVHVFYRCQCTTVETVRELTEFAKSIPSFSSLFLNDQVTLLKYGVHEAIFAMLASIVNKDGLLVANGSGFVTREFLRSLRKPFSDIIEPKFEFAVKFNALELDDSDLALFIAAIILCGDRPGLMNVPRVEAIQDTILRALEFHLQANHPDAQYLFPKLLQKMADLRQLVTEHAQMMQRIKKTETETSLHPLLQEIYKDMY

[2] = target: T2, Peroxisome proliferator-activated receptor gamma (Homo sapiens, UniProt P37231); assay: Agonist activity against human Peroxisome proliferator activated receptor gamma receptor in CV-1 cell was determined; assay type: functional, cell-based
T2 sequence (P37231 whole entry): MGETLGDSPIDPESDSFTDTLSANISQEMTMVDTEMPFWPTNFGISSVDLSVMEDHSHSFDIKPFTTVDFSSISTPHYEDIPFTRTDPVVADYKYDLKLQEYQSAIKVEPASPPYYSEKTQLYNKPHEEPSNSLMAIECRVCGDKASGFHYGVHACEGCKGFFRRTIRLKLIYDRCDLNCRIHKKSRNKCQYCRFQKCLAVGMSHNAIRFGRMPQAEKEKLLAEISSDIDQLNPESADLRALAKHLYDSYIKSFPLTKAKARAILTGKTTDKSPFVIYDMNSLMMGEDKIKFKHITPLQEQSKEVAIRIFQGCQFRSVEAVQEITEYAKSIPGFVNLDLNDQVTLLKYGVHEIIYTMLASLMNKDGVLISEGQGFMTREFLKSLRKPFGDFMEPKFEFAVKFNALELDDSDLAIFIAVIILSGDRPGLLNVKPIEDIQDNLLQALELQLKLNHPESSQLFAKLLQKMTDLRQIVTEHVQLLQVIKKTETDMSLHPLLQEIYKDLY

[3] = target: T3, Peroxisome proliferator-activated receptor alpha (Homo sapiens, UniProt Q07869); assay: Agonist activity against human Peroxisome proliferator activated receptor alpha receptor in CV-1 cell was determined; assay type: functional, cell-based
T3 sequence (Q07869 whole entry): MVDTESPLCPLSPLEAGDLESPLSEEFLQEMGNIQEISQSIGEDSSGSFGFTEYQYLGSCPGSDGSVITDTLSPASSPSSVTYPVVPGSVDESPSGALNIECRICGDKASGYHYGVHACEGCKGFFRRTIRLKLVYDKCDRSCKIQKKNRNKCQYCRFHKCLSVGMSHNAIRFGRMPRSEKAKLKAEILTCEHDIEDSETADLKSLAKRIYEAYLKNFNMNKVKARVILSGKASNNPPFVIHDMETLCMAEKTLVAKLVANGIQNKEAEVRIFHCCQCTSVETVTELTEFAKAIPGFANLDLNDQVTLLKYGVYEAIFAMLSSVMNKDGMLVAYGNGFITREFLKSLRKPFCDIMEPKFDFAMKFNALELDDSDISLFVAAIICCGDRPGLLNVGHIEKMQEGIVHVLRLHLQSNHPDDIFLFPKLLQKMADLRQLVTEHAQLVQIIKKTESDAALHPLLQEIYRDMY

[4] = target: T2, Peroxisome proliferator-activated receptor gamma; assay: Agonist activity against human peroxisome proliferator activated receptor gamma in CV-1 cell was determined; assay type: functional, cell-based
[5] = target: T1, Peroxisome proliferator-activated receptor delta; assay: Agonist activity against human Peroxisome proliferator activated receptor delta in CV-1 cell was determined; assay type: functional, cell-based
[6] = target: T3, Peroxisome proliferator-activated receptor alpha; assay: Agonist activity against human Peroxisome proliferator activated receptor alpha in CV-1 cell was determined; assay type: functional, cell-based
[7] = target: T4, Peroxisome proliferator-activated receptor delta (Homo sapiens) (UniProt Q03181); assay: Percent activation for human Peroxisome proliferator activated receptor delta; assay type: functional
T4 sequence (whole entry): T1 sequence (Q03181 whole entry)

[8] = target: T2, Peroxisome proliferator-activated receptor gamma; assay: Agonist activity against human peroxisome proliferator activated receptor gamma was determined; assay type: functional
[9] = target: T3, Peroxisome proliferator-activated receptor alpha; assay: Agonist activity against human Peroxisome proliferator activated receptor alpha was determined; assay type: functional

| Compound | pEC50 [1] | pEC50 [2] | pEC50 [3] | other results |
| --- | --- | --- | --- | --- |
| CC(C)OC(Cc1ccc(OCc2noc(-c3ccc(F)cc3)n2)cc1)C(=O)O (stereo not drawn) | 5.10 | 6.70 | 6.80 | – |
| CC(C)OC(Cc1ccc(OCc2noc(-c3cc(C(F)(F)F)cc(C(F)(F)F)c3)n2)cc1)C(=O)O (stereo not drawn) | 6.49 | 7.49 | 8.22 | – |
| CC(C)OC(Cc1ccc(OCCc2noc(-c3cccc(C(F)(F)F)c3)n2)cc1)C(=O)O (stereo not drawn) | 6.30 | 8.22 | 6.70 | – |
| CC(C)OC(Cc1ccc(OCCc2noc(-c3ccccc3C(F)(F)F)n2)cc1)C(=O)O (stereo not drawn) | – | – | – | pEC50 [4]: 6.80; pEC50 [5]: 5.60; pEC50 [6]: 6.40 |
| CC(C)OC(Cc1ccc(OCc2noc(-c3cc(F)cc(F)c3)n2)cc1)C(=O)O (stereo not drawn) | 6.80 | 7.00 | 7.40 | – |
| CC(C)OC(Cc1ccc(OCc2noc(-c3ccccc3)n2)cc1)C(=O)O (stereo not drawn) | 5.00 | 7.10 | 6.80 | – |
| CC(C)OC(Cc1ccc(OCc2noc(-c3cc(C(F)(F)F)cc(C(F)(F)F)c3)n2)cc1)C(=O)O (stereo in doubt; -1n) [listing 1 of 2 here] | – | – | – | Activation [7]: 40% |
| Cc1ccccc1-c1nc(COc2ccc(CC(OC(C)C)C(=O)O)cc2)no1 (stereo not drawn) | 5.80 | 7.00 | 7.40 | – |
| CC(C)OC(Cc1ccc(OCCc2noc(-c3ccc(F)cc3)n2)cc1)C(=O)O (stereo not drawn) | – | 7.40 | 6.10 | – |
| CC(C)OC(Cc1ccc(OCc2noc(-c3cc(C(F)(F)F)cc(C(F)(F)F)c3)n2)cc1)C(=O)O (stereo in doubt; (+)1n) [listing 1 of 2 here] | – | – | – | Activation [7]: 40% |
| CC(C)OC(Cc1ccc(OCCc2noc(-c3cc(C(F)(F)F)cc(C(F)(F)F)c3)n2)cc1)C(=O)O (stereo not drawn) | – | – | – | pEC50 [8]: 8.40; Activation [7]: < 40%; pEC50 [9]: 7.30 |
| CC(C)OC(Cc1ccc(OCc2noc(-c3ccc(Br)cc3)n2)cc1)C(=O)O (stereo not drawn) | 6.10 | 7.49 | 7.40 | – |
| Cc1cccc(-c2nc(COc3ccc(CC(OC(C)C)C(=O)O)cc3)no2)c1 (stereo not drawn) | 5.80 | 7.30 | 7.10 | – |
| CC(C)OC(Cc1ccc(OCc2noc(-c3cccc(F)c3)n2)cc1)C(=O)O (stereo not drawn) | 5.10 | 7.00 | 7.10 | – |
| CC(C)OC(Cc1ccc(OCc2noc(C3CCCCC3)n2)cc1)C(=O)O (stereo not drawn) | – | 6.64 | 6.62 | – |
| CC(C)OC(Cc1ccc(OCCc2noc(-c3ccccc3)n2)cc1)C(=O)O (stereo not drawn) | – | 7.89 | 5.70 | – |
| CC(C)OC(Cc1ccc(OCc2noc(-c3ccc(C(C)(C)C)cc3)n2)cc1)C(=O)O (stereo not drawn) | 5.30 | 8.52 | 7.40 | – |
| Cc1ccc(-c2nc(COc3ccc(CC(OC(C)C)C(=O)O)cc3)no2)cc1 (stereo not drawn) | 5.60 | 7.80 | 7.60 | – |
| CC(C)OC(Cc1ccc(OCc2noc(-c3cc(C(F)(F)F)cc(C(F)(F)F)c3)n2)cc1)C(=O)O (stereo in doubt; -1n) [listing 2 of 2 here] | – | – | – | pEC50 [4]: 7.49; pEC50 [5]: 6.20; pEC50 [6]: 8.40 |
| CC(C)OC(Cc1ccc(OCCc2noc(-c3cccc(Cl)c3)n2)cc1)C(=O)O (stereo not drawn) | 7.00 | 8.40 | 6.49 | – |
| CC(C)OC(Cc1ccc(OCc2noc(-c3ccc(C(C)C)cc3)n2)cc1)C(=O)O (stereo not drawn) | 5.10 | 8.40 | 7.89 | – |
| CC(C)OC(Cc1ccc(OCc2noc(-c3ccc(OC(F)(F)F)cc3)n2)cc1)C(=O)O (stereo not drawn) | 5.10 | 7.20 | 7.70 | – |
| CC(C)OC(Cc1ccc(OCc2noc(-c3ccc(Cl)cc3)n2)cc1)C(=O)O (stereo not drawn) | 6.30 | 7.70 | 7.89 | – |
| CC(C)OC(Cc1ccc(OCCc2noc(-c3cccc(F)c3)n2)cc1)C(=O)O (stereo not drawn) | 5.40 | 8.70 | 6.30 | – |
| CC(C)OC(Cc1ccc(OCc2noc(-c3ccc(C(F)(F)F)cc3)n2)cc1)C(=O)O (stereo not drawn) | 6.30 | 7.60 | 7.49 | – |
| CC(C)OC(Cc1ccc(OCc2noc(-c3cc(C(F)(F)F)cc(C(F)(F)F)c3)n2)cc1)C(=O)O (stereo in doubt; (+)1n) [listing 2 of 2 here] | – | – | – | pEC50 [4]: 6.20; pEC50 [5]: 6.10; pEC50 [6]: 5.60 |
| CC(C)OC(Cc1ccc(OCCc2noc(-c3ccc(Cl)cc3)n2)cc1)C(=O)O (stereo not drawn) | – | 7.60 | 6.40 | – |
